Where a name gives a salt, the structure may show the parent alone.
Assays:
[1] = not told; cited from earlier work
[2] = test system: cLH rats; assay: Forced swim test (FST) after local bilateral infusion in LHb of cLH rats; format: in vivo, rat; settings: 1 ul each side
[3] = test system: cLH rats; assay: Sucrose preference test (SPT) after local bilateral infusion in LHb of cLH rats; format: in vivo, rat; settings: 1 ul each side
[4] = test system: LHb neurons; assay: Whole cell patch recording of spontaneous activity of LHb neurons, CRS mouse model; format: cell-based; settings: LHb slices of CRS mice
[5] = test system: C56BL/6 mice; assay: Mouse forced swim test after i.p. administration; format: in vivo; settings: 1 hour after administration
[6] = test system: LHb neurons; assay: In vivo multi-tetrode recording in the LHb of CRS mice; parameters: species or system mouse
[7] = test system: LHb neurons; assay: Whole cell patch recording of spontaneous activity of LHb neurons, cLH rat model; format: cell-based; settings: LHb slices of cLH rats
[8] = test system: silent LHb neurons; assay: NMDA perfusion-induced bursting in originally silent LHb neurons; format: cell-based
[9] = test system: spontaneously bursting LHb neurons; assay: Spontaneous bursts of LHb neurons in brain slices, bath application; format: cell-based
[10] = target: AMPA receptor (AMPAR); settings: cited from earlier work
[11] = test system: lateral habenular neurons; assay: Hyperpolarization-triggered rebound bursts in LHb brain slices; format: cell-based; settings: AP5 100 μM
[12] = test system: NMDARs; format: cell-based; settings: NBQX, picrotoxin, 0 Mg2+
[13] = test system: NMDAR; settings: cited from earlier work
[14] = mibefradil 10 nmol, 1 hr after infusion
[15] = ketamine 25 ug, 1 hr after infusion

## COCC(=O)O[C@]1(CCN(C)CCCc2nc3ccccc3[nH]2)CCc2cc(F)ccc2[C@@H]1C(C)C [mibefradil]
[1]
  blood-brain barrier permeability: has no blood-brain barrier permeability
[2]; [14]
  immobility in the FST: quickly rescued the depressive-like behaviors
[3]; [14]
  anhedonia in the SPT: quickly rescued the depressive-like behaviors

## CC1(C)OC(=O)NC1=O [dimethadione]
[1]
  blood-brain barrier permeability: shows at least some level of blood-brain barrier permeability

## CN[C@]12CCCC[C@H]1Cc1ccccc12 [PD-137889]
[1]
  blood-brain barrier permeability: capable of crossing a blood-brain barrier or show at least certain level of blood-brain barrier permeability

## CC12CC3CC(C)(C1)CC(N)(C3)C2 [memantine hydrochloride]
[1]
  blood-brain barrier permeability: capable of crossing a blood-brain barrier or show at least certain level of blood-brain barrier permeability

## CCCC(CCC)C(=O)[O-].[Na+] [sodium valproate]
[1]
  blood-brain barrier permeability: shows at least some level of blood-brain barrier permeability

## CN1C(=O)OC(C)(C)C1=O [trimethadione]
[1]
  blood-brain barrier permeability: shows at least some level of blood-brain barrier permeability

## CNC1(c2ccccc2Cl)CCCCC1=O (centres unmarked) [ketamine]
[1]
  blood-brain barrier permeability: capable of crossing a blood-brain barrier or show at least certain level of blood-brain barrier permeability
[4]
  increase of bursting neurons in CRS mouse model: reversed by ketamine
[2]; [15]
  immobility time in the FST: sufficient to quickly rescue the depressive-like behaviors
[2]; ketamine 25 ug, 14 d
  sustained antidepressant effect in FST: sustained antidepressant effects for 14 days
[5]; ketamine 2.5 mg/kg i.p.
  effect in the forced swim test: ineffective
[6]; 10 mg/kg, i.p., 1 h prior to recording, CRS mice
  LHb bursting activity in vivo: significantly suppressed
[6]; 10 mg/kg, i.p., CRS mice
  cumulative frequency distributions of ISI: significantly shifted toward control level
[6]; 1 hr after systemic injection, 10 mg/kg, i.p., CRS mice
  LHb network synchronization (STA and SFC, theta band): reversed to control level
[6]; CRS mice treated with ketamine (control 143 ms, CRS 33 ms)
  50% percentile of ISI: 121 ms
[7]
  increase of bursting neurons in cLH rat model: reversed by ketamine
[8]; additional bath application of 100 μM ketamine
  NMDA-induced bursting activity: blocked
[3]; [15]
  anhedonia, sucrose preference test: sufficient to quickly rescue the depressive-like behaviors
[3]; ketamine 25 ug, 14 d
  sustained antidepressant effect in SPT: sustained antidepressant effects for 14 days

## CC(C)(C)CCN1C[C@@H]2C(CNC(=O)c3cc(Cl)cc(Cl)c3)[C@@H]2C1 (some centres unmarked) [ML218]
[1]
  blood-brain barrier permeability: shows at least some level of blood-brain barrier permeability

## C/C=C1\[C@H]2C=C(C)C[C@]1(N)c1ccc(=O)[nH]c1C2 [Huperzine A]
[1]
  blood-brain barrier permeability: capable of crossing a blood-brain barrier or show at least certain level of blood-brain barrier permeability

## CN[C@H](CC(=O)O)C(=O)O [NMDA, N-methyl-D-aspartate]
[8]; NMDA 20 μM, NBQX, picrotoxin, 0 Mg2+
  originally silent LHb neurons induced to strong bursting activity: 10 out of 13

## CCCCCCC(C)(C)c1cc(O)c2c(c1)OC(C)(C)[C@H]1CC=C(CO)C[C@H]21 [HU-211]
[1]
  blood-brain barrier permeability: capable of crossing a blood-brain barrier or show at least certain level of blood-brain barrier permeability

## CNCC[C@@H](Oc1ccccc1C)c1ccccc1 [Atomoxetine]
[1]
  blood-brain barrier permeability: capable of crossing a blood-brain barrier or show at least certain level of blood-brain barrier permeability

## CCC1(C)CC(=O)NC1=O (centres unmarked) [ethosuximide]
[1]
  blood-brain barrier permeability: shows at least some level of blood-brain barrier permeability
[5]; ethosuximide 100 mg/kg i.p.
  effect in the forced swim test: ineffective

## NS(=O)(=O)c1cccc2c1c([N+](=O)[O-])cc1nc(O)c(O)nc12 [NBQX]
[9]; NBQX 10 μM
  spontaneous bursts: reduced bursts, but to a much smaller extent than NMDAR blockade
[10]
  IC50: 0.15 µM

## O=C(O)c1cc(=O)c2ccccc2[nH]1 [kynurenic acid]
[1]
  blood-brain barrier permeability: capable of crossing a blood-brain barrier or show at least certain level of blood-brain barrier permeability

## CN1C(=O)CC(C)(c2ccccc2)C1=O (centres unmarked) [methsuximide]
[1]
  blood-brain barrier permeability: shows at least some level of blood-brain barrier permeability

## NC(CCCCCP(=O)(O)O)C(=O)O (centres unmarked) [AP7]
[1]
  blood-brain barrier permeability: observed but at a low level

## O=C(O)[C@@H]1C[C@H](CP(=O)(O)O)CCN1 (racemic) [Selfotel]
[1]
  blood-brain barrier permeability: capable of crossing a blood-brain barrier or show at least certain level of blood-brain barrier permeability

## NCC1(CC(=O)O)CCCCC1 [Gabapentin]
[1]
  blood-brain barrier permeability: do not have blood-brain barrier permeability

## COc1ccc2c(c1)[C@]13CCCC[C@@H]1[C@H](C2)N(C)CC3 [Dextromethorphan]
[1]
  blood-brain barrier permeability: capable of crossing a blood-brain barrier or show at least certain level of blood-brain barrier permeability

## O=C1NC(=O)C(c2ccccc2)(c2ccccc2)N1 [phenytoin]
[1]
  blood-brain barrier permeability: shows at least some level of blood-brain barrier permeability

## CCc1cccc(N(C)C(N)=Nc2cccc3ccccc23)c1 [Aptiganel]
[1]
  blood-brain barrier permeability: capable of crossing a blood-brain barrier or show at least certain level of blood-brain barrier permeability

## NS(=O)(=O)Cc1noc2ccccc12 [zonisamide]
[1]
  blood-brain barrier permeability: shows at least some level of blood-brain barrier permeability

## NC12CC3CC(CC(C3)C1)C2 [Amantadine]
[1]
  blood-brain barrier permeability: capable of crossing a blood-brain barrier or show at least certain level of blood-brain barrier permeability

## O=C(O)C1CN(C/C=C/P(=O)(O)O)CCN1 (centres unmarked) [CPPene]
[1]
  blood-brain barrier permeability: capable of crossing a blood-brain barrier or show at least certain level of blood-brain barrier permeability

## N[C@@H](Cc1ccccn1)c1ccccc1 [AZD6765]
[1]
  blood-brain barrier permeability: capable of crossing a blood-brain barrier or show at least certain level of blood-brain barrier permeability

## CCN(c1ccccc1)c1cc(=NC)n(C)c(C)n1.Cl [ZD7288]
[9]; ZD7288 50 μM
  effect on spontaneous bursts: significant but much smaller effect on bursts than mibefradil

## NC(CCCP(=O)(O)O)C(=O)O (centres unmarked) [AP5]
[9]; AP5 100 μM bath application
  spontaneous burst-firing: stopped burst-firing
[1]
  blood-brain barrier permeability: do not have blood-brain barrier permeability
[2]; AP5 40 nmol, 0.5 h
  immobile time in the FST: efficiently reduced the immobile time
[11]
  probability of neuron hyperpolarization-induced burst: 0.12
[3]; AP5 40 nmol, 0.5 h
  hedonic behaviors in the SPT: increased hedonic behaviors
[12]
  isolated NMDAR-currents (NMDAR-EPSCs): abolished
[13]
  IC50: 30 µM

From US11471428B2, “Method and pharmaceutical composition for treating depression” (ZHEJIANG UNIVERSITY, priority 2017, dated 2022)
